What follows are molecules tested against H1047R PIK3CA enzyme (Homo sapiens, UniProt P42336, H1047R) (assay: ADP-Glo Biochemical PIK3CA Kinase Assay).
Chain of H1047R PIK3CA enzyme (P42336 whole entry H1047R): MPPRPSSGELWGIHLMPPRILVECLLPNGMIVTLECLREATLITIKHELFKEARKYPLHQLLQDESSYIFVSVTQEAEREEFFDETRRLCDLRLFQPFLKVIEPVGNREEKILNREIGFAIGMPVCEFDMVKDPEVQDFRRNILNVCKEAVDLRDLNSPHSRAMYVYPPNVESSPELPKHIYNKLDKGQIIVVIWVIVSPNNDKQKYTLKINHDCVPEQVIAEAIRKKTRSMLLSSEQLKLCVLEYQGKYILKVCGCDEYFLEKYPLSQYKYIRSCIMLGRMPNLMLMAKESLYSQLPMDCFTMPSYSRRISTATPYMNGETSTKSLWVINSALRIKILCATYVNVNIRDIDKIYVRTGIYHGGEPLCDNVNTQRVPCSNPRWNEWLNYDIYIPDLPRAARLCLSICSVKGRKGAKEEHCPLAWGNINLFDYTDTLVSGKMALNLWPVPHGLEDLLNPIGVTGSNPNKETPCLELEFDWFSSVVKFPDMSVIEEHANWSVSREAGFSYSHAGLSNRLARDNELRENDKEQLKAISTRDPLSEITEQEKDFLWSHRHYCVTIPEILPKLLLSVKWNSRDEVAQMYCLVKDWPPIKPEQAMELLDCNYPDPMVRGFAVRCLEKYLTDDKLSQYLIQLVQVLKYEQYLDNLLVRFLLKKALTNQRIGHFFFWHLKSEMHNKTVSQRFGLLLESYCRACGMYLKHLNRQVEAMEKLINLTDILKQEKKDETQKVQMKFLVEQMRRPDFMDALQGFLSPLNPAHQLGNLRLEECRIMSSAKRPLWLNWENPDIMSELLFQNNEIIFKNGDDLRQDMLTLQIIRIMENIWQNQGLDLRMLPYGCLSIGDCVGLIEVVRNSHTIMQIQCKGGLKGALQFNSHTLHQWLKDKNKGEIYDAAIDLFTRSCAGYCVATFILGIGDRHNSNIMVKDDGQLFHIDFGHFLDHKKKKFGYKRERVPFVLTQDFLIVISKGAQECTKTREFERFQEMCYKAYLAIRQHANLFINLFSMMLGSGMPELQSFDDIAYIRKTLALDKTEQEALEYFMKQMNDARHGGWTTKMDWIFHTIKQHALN
Chain of H1047R PIK3CA enzyme (P27986 whole entry partner): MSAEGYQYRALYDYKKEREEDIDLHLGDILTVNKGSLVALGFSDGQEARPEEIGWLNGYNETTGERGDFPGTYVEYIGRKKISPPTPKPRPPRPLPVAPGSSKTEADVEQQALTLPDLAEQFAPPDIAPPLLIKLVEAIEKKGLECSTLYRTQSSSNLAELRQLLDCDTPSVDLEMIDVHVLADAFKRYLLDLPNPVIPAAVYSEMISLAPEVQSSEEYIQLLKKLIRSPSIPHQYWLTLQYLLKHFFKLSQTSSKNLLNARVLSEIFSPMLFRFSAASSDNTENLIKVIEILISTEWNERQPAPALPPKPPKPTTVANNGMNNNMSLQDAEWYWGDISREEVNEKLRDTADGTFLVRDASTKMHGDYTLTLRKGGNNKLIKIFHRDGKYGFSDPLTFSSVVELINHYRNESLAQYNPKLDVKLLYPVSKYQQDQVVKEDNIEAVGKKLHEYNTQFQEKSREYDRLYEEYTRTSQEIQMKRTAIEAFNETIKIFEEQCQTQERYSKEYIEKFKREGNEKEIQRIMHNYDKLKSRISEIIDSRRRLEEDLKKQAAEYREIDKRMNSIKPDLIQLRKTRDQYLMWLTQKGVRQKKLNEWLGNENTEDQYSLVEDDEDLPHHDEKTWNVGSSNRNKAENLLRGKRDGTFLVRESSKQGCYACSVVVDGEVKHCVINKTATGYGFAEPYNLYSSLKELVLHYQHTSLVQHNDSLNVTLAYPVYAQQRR

SMILES | IC50 [nM]
CN1C[C@@H](COc2cc(NC(=O)c3cc(F)cc(C(F)(F)F)c3)c3c(c2)C(=O)N[C@@H]3c2cc(F)ccc2Cl)CC1=O (single isomer, unassigned) [Compound I-1523] | 1000 to 10000
N#Cc1cnccc1-c1cc(NC(=O)c2cc(F)cc(Cl)c2)c2c(n1)C(=O)NC2c1cc(F)ccc1Cl (stereo not shown) [Compound I-506] | ≤ 100
O=C1NC(c2cc(F)ccc2F)c2c(NC(=O)c3csc4ccccc34)ccnc21 (stereo not shown) [Compound I-71] | 500 to 1000
NC(=O)Cn1nc(Nc2cc(-c3ccc4ncnn4c3)cc3c2C(c2cc(F)ccc2Cl)NC3=O)c2ccccc21 (stereo not shown) [Compound I-1806] | 1000 to 10000
O=C(Nc1cc(-c2cn3c(F)cnc3cn2)cc2c1[C@@H](c1cc(F)ccc1Cl)NC2=O)c1cc(F)cc(C(F)(F)F)c1 [Compound I-1877] | 1000 to 10000
N#Cc1ncc(-c2cc(NC(=O)c3cc(F)cc(C(F)(F)F)c3)c3c(c2)C(=O)NC3c2cc(F)ccc2Cl)cn1 (stereo not shown) [Compound I-886] | ≤ 100
Cc1nc2ccccn2c1CC(=O)Nc1cc(Br)cc2c1C(c1cc(F)ccc1Cl)NC2=O (stereo not shown) [Compound I-603] | 10000 to 100000
CCn1cc(-c2cc(NC(=O)c3cc(F)cc(C(F)(F)F)c3)c3c(c2)C(=O)N[C@H]3c2cc(F)ccc2Cl)ccc1=O [Compound I-704] | ≤ 100
O=C(Nc1cc(OCC2(CO)COC2)cc2c1C(c1cc(F)ccc1Cl)NC2=O)c1cc(F)cc(C(F)(F)F)c1 (stereo not shown) [Compound I-1357] | ≤ 100
O=C1N[C@@H](c2cc(F)ccc2Cl)c2c(NC(=O)N3C[C@@H](O)c4cc(F)ccc43)cc(Cl)cc21 (single isomer, unassigned) [Compound I-2401] | 10000 to 100000
O=C(Nc1cc(-c2ccn3ccnc3c2)cc2c1[C@H](c1cc(F)ccc1Cl)NC2=O)c1cc(F)cc(C(F)(F)F)c1 [Compound I-1450] | ≤ 100
O=C(Nc1cc(-c2ccc3nc(C4CC4)nn3c2)cc2c1C(c1cc(F)ccc1Cl)NC2=O)c1cc(F)cc(C(F)(F)F)c1 (stereo not shown) [Compound I-1624] | ≤ 100
Nc1nc2cc(-c3cc(NC(=O)c4cc(F)cc(C(F)(F)F)c4)c4c(c3)C(=O)NC4c3cc(F)ccc3Cl)ccc2o1 (stereo not shown) [Compound I-1531] | ≤ 100
O=C(Nc1cc(Br)cc2c1C(c1cc(F)ccc1Cl)NC2=O)c1cc(F)cc(F)c1 (stereo not shown) [Compound I-468] | 100 to 500
O=C(Nc1cc(-c2ccc3ncnn3c2)cc2c1C(c1cc(F)ccc1Cl)NC2=O)C(=NO)c1ccccc1 (stereo not shown) [Compound I-1760] | 10000 to 100000
O=C(Nc1cc(-c2ccnc(C(F)F)c2)cc2c1[C@@H](c1cc(F)ccc1Cl)NC2=O)c1cc(F)cc(C(F)(F)F)c1 [Compound I-2002] | 1000 to 10000

Now from value to molecule:

IC50 [nM] | SMILES
≤ 100 | CNS(=O)(=O)Cc1cc(NC(=O)c2cc(F)cc(C(F)(F)F)c2)c2c(c1)C(=O)NC2c1cc(F)ccc1Cl (stereo not shown) [Compound I-1365]
100 to 500 | COCCNc1cc(NC(=O)c2cc(F)cc(C(F)(F)F)c2)c2c(n1)C(=O)NC2c1cc(F)ccc1Cl (stereo not shown) [Compound I-288]
≤ 100 | COC(=O)c1cc(NC(=O)c2cc(F)cc(C(F)(F)F)c2)c2c(c1)C(=O)NC2c1cc(F)ccc1Cl (stereo not shown) [Compound I-373]
10000 to 100000 | CNc1cc(C(F)(F)F)cc(C(=O)Nc2cccc3c2C(c2cc(F)ccc2Cl)NC3=O)n1 (stereo not shown) [Compound I-839]
10000 to 100000 | O=C1N[C@@H](c2cc(F)ccc2Cl)c2c(NC(=O)N3C[C@H](CO)[C@@H](C(F)(F)F)C3)cccc21 (single isomer, unassigned) [Compound I-2279]
1000 to 10000 | O=C(Cc1ccccc1C(F)(F)F)Nc1cc(Br)cc2c1C(c1cc(F)ccc1Cl)NC2=O (stereo not shown) [Compound I-568]
100 to 500 | O=C(Nc1cc(Br)cc2c1C(c1cc(F)ccc1Cl)NC2=O)c1ccc(Cl)c(C(F)(F)F)c1 (stereo not shown) [Compound I-952]
1000 to 10000 | N#CC[C@H](O)c1cc(NC(=O)c2cc(F)cc(C(F)(F)F)c2)c2c(c1)C(=O)N[C@@H]2c1cc(F)ccc1Cl (single isomer, unassigned) [Compound I-1392]
1000 to 10000 | Nc1cc(C(F)(F)F)cc(C(=O)Nc2cccc3c2C(c2cc(F)ccc2Cl)NC3=O)n1 (stereo not shown) [Compound I-726]

Source: patent publication US12581252B2, “Substituted pyrrolo[3,4-b]pyridines as PI3K-α inhibitors” (Relay Therapeutics, Inc., priority 2020, dated 2026)
